These results are taken from US20260231948A1, “AN HERBICIDAL COMBINATION, COMPOSITION AND METHOD OF CONTROLLING WEEDS USING THE SAME” (priority 2023, published 2026).

Assay [1] has as its system Viola arvensis, Bromus spp., Lolium spp., Agropyron repens and Urtica urens. Particulars: Hoechst et al., 1991; cited from earlier work.
The test system of a further assay is Brachiaria decumbens. Nature of the assay: Greenhouse post-emergence herbicidal activity on Brachiaria decumbens. Format: in vivo. The method, then:
The expected efficacy of a combination of L-glufosinate ammonium and the other herbicides was calculated using the well-established Colby method. Any difference between the observed and “expected” efficacy could be attributed to synergy between the two compounds.
In the Colby method, the expected (or predicted) response of a combination of herbicides is calculated by taking the product of the observed response for each individual component of the combination when applied alone, divided by 100, and subtracting this value from the sum of the observed response for each component when applied alone. An unexpected enhancement in efficacy of the combination is then determined by comparing the observed response of the combination to the expected (or predicted) response as calculated from the observed response of each individual component alone. If the observed response of the combination is greater than the expected (or predicted) response, or stated conversely, if the difference between the observed and expected response is greater than zero, then the combination is said to be synergistic or unexpectedly effective (Colby, S. R., Weeds, 1967(15), p. 20-22). […]
The percentage efficacy was calculated at 7, 14, 21 and 28 days after application (DAA). The target weed was Brachiaria decumbens, and the concentration of the herbicide and the results are recorded Table 1.

`CP(=O)(O)CCC(N)C(=O)O` (racemic) [glufosinate, DL-homoalanin-4-yl(methyl)phosphinic acid]: the “Control of weed species by glufosinate” value in assay [1] is on record as “either not combated, or only weakly combated”.
For the molecule `CS(=O)(=O)c1cc(C(F)(F)F)ccc1C(=O)c1cnoc1C1CC1` [isoxaflutole], the “Observed efficacy (%) of isoxaflutole (60 g a.i./ha)” value amounted to 45% in the assay with Brachiaria decumbens (7 DAA) and 70% with Brachiaria decumbens (14 DAA).
